Marks after values point to notes of the source that are not given here.
Columns and labels:
[1] = tested on: naturally-expressed oligomers of Aβ; assay: In vitro effect on naturally-expressed Aβ oligomers; details: naturally-expressed oligomers at 1-2 nM; 5 μM = 0.9 μg/mL
long term potentiation = assay: Long term potentiation experiments with amyloid oligomer; details: amyloid oligomer concentration 1-2 nM
Method: More complex systems provide support for 5 μM (0.9 μg/mL) as an effective local concentration of the scyllo-cyclohexanehexyl. […] The effectiveness of this concentration was confirmed in acute cognitive dysfunction study in rats.

plaque burden [2] = assay: TgCRND8 effective dose range (0.3-3.3 mg/kg/day, 3 to 4 months): plaque burden; assay type: in vivo; details: TgCRND8 mice
Method: The highest possible dose level of scyllo-cyclohexanehexyl compound was administered in a CRND8 mouse model. […]8 mice were dosed for 28 days from 3 to 4 months of age, i.e. a time when the disease phenotype would be newly established. This study design was selected to enhance the efficiency of the study (dose earlier) and maximise the information obtained (dose at a time when changes are of sufficient magnitude to detect a treatment effect). […] Cognitive function and plaque burden were assessed. • Improvement of cognitive function: Animals were assessed using the Morris Water Maze at 4 months (FIG. 11). […] This path length was similar to that observed in previous experiments in mice dosed with the compound in drinking water ad libitum. […] Thus a clear dose response was observed.

[3] = Competition of scyllo-inositol uptake by myo-inositol after single oral gavage (FIG. 17); assay type: in vivo; details: co-administration of 0, 50, 200 or 400 μg of myo-inositol
Method: FIG. 17. A competition assay with myo-inositol to compete scyllo-inositol uptake, following a single oral gavage dose was examined. (A) Plasma 3^H-scyllo-inositol levels following co-administration of 0, 50, 200 or 400 μg of myo-inositol. Myo-inositol loading appears to alter the kinetics of oral scyllo-inositol uptake in a dose-dependent manner.

clinical = details: human, in vivo
Description: Dose levels were escalated between cohorts, such that the first cohort received the lowest dose level, the middle cohorts received intermediate dose levels, and the final cohort received the highest proposed dose level. Dose escalation was dependent on a review of safety data from the previously dosed cohort. […] Dosing started with the lowest dose and escalated to the highest dose. […] Subjects received their single dose of study drug on the study day 1 (Day 1). Throughout the day on Day 1, subjects were monitored for safety and PK samples were drawn. On Day 2, subjects were monitored for safety and PK samples were drawn.

plaque burden [4] = assay: TgCRND8 mice therapeutic dosing (5-6 months): plaque burden; assay type: in vivo; details: TgCRND8 mice dosed 5-6 months age, 28 days, 10 mg/ml in drinking water

Chain of naturally-expressed oligomers of Aβ (P05067 672-711 limits assumed): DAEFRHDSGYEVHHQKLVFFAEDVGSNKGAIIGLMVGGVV

For scyllo-inositol [AZD-103], the “concentration showing greater consistency of effect” value [1] was 5 µM, the “lowest maximally-effective dose level” value (long term potentiation) was 5 µM and the “plaque parameters (plaque count and brain plaque area)” value (“plaque parameters” for short) (plaque burden [2]; 0.3 mg/kg/day, 28 days from 3 to 4 months) was “indistinguishable from untreated controls”. For the same molecule, the “plaque parameters” value (plaque burden [2]; 1 mg/kg/day, plaque count p=0.02, plaque area p=0.011) was “significantly reduced” and the “plaque parameters” value (plaque burden [2]; 3.3 mg/kg/day, plaque count p<0.0001, plaque area p<0.001) was “greatest reduction in plaque burden”.
In the case of `OC1C(O)C(O)C(O)C(O)C1O` (stereo not drawn) [AZD-103, scyllo-inositol], the “brain levels of scyllo-inositol at 4 h following myo-inositol administration” value [3] is reported as “not significantly changed”, the “mean elimination half-life (t1/2), range over doses” value (clinical; po) is reported as 13 24 and the CL/F (clinical; po, 500 mg) is reported as 13.67 ± 5.49 L/h. For the same molecule, the CL/F (clinical; po, 1000 mg) was 8.51 ± 2.78 L/h, the CL/F (clinical; po, 2000 mg) was 9.59 ± 1.80 L/h and the CL/F (clinical; po, 3500 mg) was 7.71 ± 1.59 L/h. For the same molecule, the CL/F (clinical; po, 5000 mg) was 10.04 ± 1.49 L/h, the Vd (clinical; male, 7000 mg) was 214 L and the half-life (clinical; male, 7000 mg) was 18.4 h. The “share of the AUC accounted for in the first 12 hrs” value (clinical; male, po) was 80-85%, the AUC(0-inf) (clinical; male, po, 500 mg) was 42.5 ± 22.1 µg·h/mL and the AUC(0-t) (clinical; male, po, 500 mg) was 29.9 ± 7.11 µg·h/mL. For the same molecule, the Cmax (clinical; male, po, 500 mg) was 5.83 ± 1.83 µg/mL, the MRT (clinical; male, po, 500 mg) was 19.1 ± 21.8 h and the Tmax (clinical; male, po, 500 mg) was 4 ± 1.55 h. For the same molecule, the half-life (clinical; male, po, 500 mg) was 13.3 ± 16.7 h, the AUC(0-inf) (clinical; male, po, 1000 mg) was 130 ± 44.4 µg·h/mL and the Cmax (clinical; male, po, 1000 mg) was 17 ± 5.29 µg/mL. It also gave an MRT (clinical; male, po, 1000 mg) of 19.7 ± 3.17 h, a Tmax (clinical; male, po, 1000 mg) of 3.25 ± 1.47 h and a half-life (clinical; male, po, 1000 mg) of 22.5 ± 5.75 h. It also gave an AUC(0-inf) (clinical; male, po, 2000 mg) of 215 ± 41.9 µg·h/mL, an AUC(0-t) (clinical; male, po, 2000 mg) of 194 ± 36.1 µg·h/mL and a Cmax (clinical; male, po, 2000 mg) of 33.1 ± 7.57 µg/mL. It also gave an MRT (clinical; male, po, 2000 mg) of 16.3 ± 3.99 h, a Tmax (clinical; male, po, 2000 mg) of 2.75 ± 0.61 h and a half-life (clinical; male, po, 2000 mg) of 23.9 ± 7.24 h. The AUC(0-inf) (clinical; male, po, 3500 mg) was 467 ± 77.7 µg·h/mL, the AUC(0-t) (clinical; male, po, 3500 mg) was 441 ± 71.4 µg·h/mL and the Cmax (clinical; male, po, 3500 mg) was 74.6 ± 9.24 µg/mL. It also gave an MRT (clinical; male, po, 3500 mg) of 11 ± 1.43 h, a Tmax (clinical; male, po, 3500 mg) of 2.75 ± 0.61 h and a half-life (clinical; male, po, 3500 mg) of 20.3 ± 3.09 h. The AUC(0-inf) (clinical; male, po, 5000 mg) was 507 ± 72 µg·h/mL, the AUC(0-t) (clinical; male, po, 5000 mg) was 491 ± 73.2 µg·h/mL and the Cmax (clinical; male, po, 5000 mg) was 110 ± 26.9 µg/mL. It also gave an MRT (clinical; male, po, 5000 mg) of 8.23 ± 2 h, a Tmax (clinical; male, po, 5000 mg) of 2.42 ± 0.66 h and a half-life (clinical; male, po, 5000 mg) of 16.9 ± 7.1 h. It also gave an AUC(0-inf) (clinical; male, po, 7000 mg) of 885 ± 151 µg·h/mL, an AUC(0-t) (clinical; male, po, 7000 mg) of 860 ± 148 µg·h/mL and a Cmax (clinical; male, po, 7000 mg) of 155 ± 20.4 µg/mL. The Tmax (clinical; male, po, 7000 mg) was 2.42 ± 0.67 h, the half-life (clinical; male, po, 7000 mg) was 18.4 ± 4.64 h and the “Mean Plaque Size” value (plaque burden [4]) was 336 ± 6* μm^2. The “Total Plaque Area” value (plaque burden [4]) was 420027 ± 14986* μm^2.
